Measurements published in patent US20070254891A1, “Crystalline forms of 4-(2-fluorophenyl)-6-methyl-2-(piperazin-1-yl)thieno[2,3-d]pyrimidine” (Dynogen Pharmaceuticals, Inc., priority 2006, published 2007).

Assay: 10 week stability study at 40° C./75% RH and 60° C./75% RH, light and dark
Type: physicochemical
Description: Purity analysis was performed on an Agilent HP1100 system equipped with a diode array detector and using Chemstation V9 software. Gradient, Reverse Phase methods (duration approximately 40 minutes) were used in a HPLC1 system. A Thermo-Electron Corporation HyPurity C18 5 um 150×4.6 mm column was used at 25° C. Test samples were made-up of 0.2 mg/ml of the compound in acetonitrile:water (1:1 v/v). 10 μl of sample was injected into the column. The flow rate through the column was 1 ml/min and the detection wavelength, bandwidth was 254,8 nm. Phase A was 0.1% phosphoric acid in water and Phase B was 0.1% phosphoric acid in acetonitrile. The mobile phase timetable is shown below in Table 2.
Samples of Form I and II were tested at 40° C./75% RH and 60° C./75% RH in both light and dark conditions for up to 10 weeks. As the samples were located in temperature/humidity control chambers, the exposure to light was limited to normal laboratory light conditions with artificial light and some winter daylight through the windows.
Approximately 100 mg of each sample was weighed into plastic weighing boats and spread out to form an even thin layer for each of the temperature/humidity/light conditions, as shown in Table 6. The dark samples were protected from exposure to light by wrapping them in aluminum foil. The foil was pierced to allow exposure to humidity.
Time points chosen for HPLC analysis during the stability study were T=0, 1, 2, 5 and 10 weeks. At 10 weeks, the samples were analyzed using XRPD, DSC and polarized light microscopy.

Cc1cc2c(-c3ccccc3F)nc(N3CCNCC3)nc2s1.Cl [Form II, 4-(2-fluorophenyl)-6-methyl-2-(piperazin-1-yl)thieno[2,3-d]pyrimidine hydrochloride]
Purity % (40° C./75% RH, Dark, 1 week): 99.9% | Purity % (40° C./75% RH, Dark, 2 weeks): 100% | Purity % (40° C./75% RH, Dark, 5 weeks): 100% | Purity % (40° C./75% RH, Dark, 10 weeks, hydrochloride): 100% | Purity % (40° C./75% RH, Light, 1 week): 99.9% | Purity % (40° C./75% RH, Light, 2 weeks): 100% | Purity % (40° C./75% RH, Light, 5 weeks, hydrochloride): 99.9% | Purity % (40° C./75% RH, Light, 10 weeks, hydrochloride): 99.9% | Purity % (60° C./75% RH, Dark, 1 week): 99.9% | Purity % (60° C./75% RH, Dark, 2 weeks, hydrochloride): 100% | Purity % (60° C./75% RH, Dark, 5 weeks): 100% | Purity % (60° C./75% RH, Dark, 10 weeks, hydrochloride): 99.9% | Purity % (60° C./75% RH, Light, 1 week): 99.8% | Purity % (60° C./75% RH, Light, 2 weeks, hydrochloride): 99.9% | Purity % (60° C./75% RH, Light, 5 weeks, hydrochloride): 99.8% | Purity % (60° C./75% RH, Light, 10 weeks, hydrochloride): 99.7% | Purity % (time point 0 weeks, hydrochloride): 99.9% | Stability as indicated by the HPLC data (up to 10 weeks, 40° C./75% RH and 60° C./75% RH): stable to ambient light levels as well as elevated temperature and humidity
